Experimental data as given in patent publication EP4650362A1, “NEUROPROTECTIVE PSD-95 POLYPEPTIDE INHIBITOR AND USE THEREOF” (Beijing Tuo Jie Biopharmaceutical Co. Ltd., priority 2023, dated 2024).
No end group written: not given here.

Columns and labels:
[1] = plasma stability test, human plasma; format: in vitro ADME; settings: Human plasma, 25 µM
Protocol: Solution preparation: An appropriate amount of a test polypeptide compound was weighed out and dissolved in an appropriate amount of 1× PBS to form a 1 mM test solution. NA-1 and NoNO42 were used as positive drugs, propantheline bromide was used as a human plasma test control, and lovastatin was used as a rat plasma test control. Plasma stability test: 12.5 µL of the 1 mM test solution was added to a 495 µL pre-incubated plasma sample. […] For each incubation time, two parallel samples were set. Subsequently, 200 µL of stop solution was added to stop the incubation, and the mixtures were vortexed for 5 min. Then the mixtures were centrifuged at 10,000 rpm at 4 °C for 10 min to remove the protein in the sample, and 70 µL of the supernatant was transferred to a new 96-well plate (70 µL of water was added to each well beforehand) and well mixed. […] Sample pretreatment: […] LC-MS analysis: […] (2) Mass-spectrometric conditions: The mass spectrometry analysis used an electrospray ionization (ESI) source, a positive ion analysis mode, and a multi-reaction monitoring (MRM) scan mode. […] The plasma stability of the polypeptide compound

[2] = pharmacokinetic study in rats, single intravenous bolus injection; format: in vivo, SD rats; settings: rats; for Cmax: iv, read-out: Cmax
Protocol: With male SD rats as test animals, the pharmacokinetic behavior of polypeptide compounds administered via single intravenous bolus injection in rats (plasma) was studied.
Male SD rats weighing 170 to 200 grams and aged 4-6 weeks were purchased from Beijing Vital River Laboratory Animal Technology Co., Ltd. The polypeptide compounds were dissolved in 1× PBS, and the polypeptide compound solutions were then administered via intravenous bolus injection over 10 min at a dose of 3 nmol/g, with three animals per group. At each of the time points of 2 min, 8 min, 15 min, 30 min, 45 min, 60 min, and 120 min after the end of bolus injection, 0.2 mL of blood was collected and transferred to an EDTA-K2 anticoagulation centrifuge tube. The whole blood sample was centrifuged at 4 °C at 4000 g for 5 min, and a plasma sample was obtained by separation and cryopreserved at -80 °C.
The pharmacokinetic parameters of polypeptide compound 22, administered via intravenous bolus injection, in rats were determined using a similar method, with the difference being that an enzyme inhibitor was added immediately after blood collection.
The plasma concentrations of the test compounds were determined using the method in Test Example 3.4.3. Plasma concentration-time curves were plotted, and the pharmacokinetic parameters were calculated using PKSolver software. The experimental results are shown in Table 5-1, Table 5-2, and FIG. 3.

[3] = pharmacokinetic study of different doses in rats; format: in vivo, SD rats; settings: intravenous bolus injection, 3 nmol/g, n = 3
Protocol: For example, at high doses, the agent causes symptoms such as tachycardia and blood pressure reduction due to excessive histamine release. Therefore, the pharmacokinetic profile of polypeptide compound 14 was assessed again using three doses: a high dose (3 nmol/g), a medium dose (1 nmol/g), and a low dose (0.3 nmol/g). […] Plasma concentration-time curves were plotted, and the pharmacokinetic parameters were calculated using WinNonlin software. Table 6. Intravenous bolus injection pharmacokinetic parameters in rats (different doses, n = 3)

histamine release = test: ability to induce histamine release in rats (plasma); format: in vivo, SD rats; settings: rat plasma, 3 nmol/g
Protocol: With male SD rats as test animals, the ability of a polypeptide compound administered via single intravenous bolus injection to induce histamine release in rats (plasma) was studied.
This test was performed synchronously with Test Examples 3.6, with three animals per group and blood collection time points set as follows: before administration, and 2 min, 8 min, and 15 min after the end of intravenous bolus injection.
The histamine and 3-methylhistamine levels at each time point were determined by LC-MS/MS. LC-MS detection of compounds: (1) Chromatographic conditions: mobile phase A: acetonitrile/water/100 mM ammonium acetate, 50/45/5 (v/v/v), 2% FA; mobile phase B: acetonitrile/100 mM ammonium acetate, 95/5 (v/v), 2% FA; flow rate: 0.4 mL/min; chromatography column: Waters BEH HILIC 1.7 µm, 2.1 × 150 mm; column temperature: 50 °C; injection volume: 20 µL. (2) Mass-spectrometric conditions: The mass spectrometry analysis used an electrospray ionization (ESI) source, a positive ion analysis mode, and a multi-reaction monitoring (MRM) scan mode.
Sample pretreatment: A 30 µL plasma sample was taken and added to 200 µL of an acetonitrile solution containing tetradeuterated histamine (D4-histamine, 100 ng/mL). The mixture was vortexed for 1 min and then centrifuged at 5800 rpm for 10 min, and 100 µL of the supernatant was transferred to a sample tray and injected into an instrument for analysis. […] Table 7. Histamine levels at different time points

[4] = male, SD, rat, in vivo, 3 nmol/g, intravenous bolus injection, enzyme inhibitor added immediately after blood collection, n = 3
[5] = intravenous bolus injection over 10 min, 3 nmol/g, n = 3
[6] = intravenous bolus injection, enzyme inhibitor added immediately after blood collection, n = 3

Q: For “YGRKKRRQRRRKLSSIESDV [NA-1, YGRKKRRQR RRKLSSIESDV, reference compound]”, which “Relative remaining compound content (%)” value ([1]; 0min (standard 100%)) is on record?
A: The value was 100.0%.

Q: And the remaining at 10 min, 25 µM ([1]; 10min, read-out: Relative remaining compound content (%))?
A: The remaining at 10 min, 25 µM was 76.4%.

Q: And the remaining at 20 min, 25 µM ([1]; 20min, read-out: Relative remaining compound content (%))?
A: The remaining at 20 min, 25 µM was 74.9%.

Q: And the remaining at 0.5 h, 25 µM ([1]; 30min, read-out: Relative remaining compound content (%))?
A: The remaining at 0.5 h, 25 µM was 70.6%.

Q: What about the remaining at 1 h, 25 µM ([1]; 60min, read-out: Relative remaining compound content (%)) of the same sequence?
A: Its remaining at 1 h, 25 µM is 53.9%.

Q: What about the remaining at 2 h, 25 µM ([1]; 120min, read-out: Relative remaining compound content (%)) of the same sequence?
A: The remaining at 2 h, 25 µM was 25.1%.

Q: And the Tmax [2, 4]?
A: The Tmax was 12 min.

Q: And the Cmax ([2]; male, SD, rat, in vivo, 3 nmol/g, intravenous bolus injection over 10 min, 3 nmol/g, n = 3)?
A: Its Cmax is 3800 ng/mL.

Q: And the Cmax [2, 4]?
A: Its Cmax is 7250 ng/mL.

Q: What about the half-life ([2]; male, SD, rat, in vivo, intravenous bolus injection over 10 min, 3 nmol/g, n = 3, read-out: T1/2 (converted)) of the same sequence?
A: Its half-life is 2.4 min.

Q: And the “AUC(0-t)” value [2, 5]?
A: Its value is 309 ng·h/mL.

Q: What about the “AUC(inf)” value [2, 5] of the same sequence?
A: Its value is 315 ng·h/mL.

Q: And the AUClast/dose [2, 5]?
A: The AUClast/dose was 41.

Q: And the MRTO-inf [2, 5]?
A: The MRTO-inf was 3.6 min.

Q: What about the half-lives ([2]; intravenous bolus injection, 3 nmol/g (Table 5-1)) of the same sequence?
A: Its half-lives is “less than 3 min”.

Q: And the “AUC(inf)” value [2, 6]?
A: The value was 1248 ng·h/mL.

Q: And the AUClast/dose [2, 6]?
A: The AUClast/dose was 184.0.

Q: And the MRTO-inf [2, 6]?
A: Its MRTO-inf is 13.2 min.

Q: What about the T1/2 [2, 6] of the same sequence?
A: Its T1/2 is 2.4 min.

Q: What about the half-life ([3]; SD, rat, in vivo) of the same sequence?
A: The half-life was 2.1 min.

Q: And the “AUC(0-t)” value ([3]; blood to 180 min)?
A: Its value is 1149 ng·h/mL.

Q: What about the “AUC(inf)” value [3] of the same sequence?
A: The value was 1154 ng·h/mL.

Q: And the Cmax [3]?
A: The Cmax was 7188 ng/mL.

Q: And the MRTO-inf [3]?
A: Its MRTO-inf is 7.5 min.

Q: And the “Histamine levels (sums of detected histamine and 3-methylhistamine)” value (from here on “Histamine levels”) (histamine release; 0 min (before administration))?
A: Its value is 21.0±5.9.

Q: What about the “Histamine levels” value (histamine release; 2 min after the end of intravenous bolus injection) of the same sequence?
A: Its value is 390.7±164.2.

Q: What about the “Histamine levels” value (histamine release; 8 min after the end of intravenous bolus injection) of the same sequence?
A: The value was 86.6±36.6.

Q: What about the “Histamine levels” value (histamine release; 15 min after the end of intravenous bolus injection) of the same sequence?
A: The value was 48.3±19.2.
